Assay results reported in patent US20060026702A1, “Phosphoinositide 3-kinase mediated inhibition of GPCRs” (DUKE UNIVERSITY, priority 2002, published 2006).

Experiments:
[1] = system: β2AR; experiment: β2AR sequestration in HEK-293 cells by 125I-Cyanopindolol binding; assay type: cell-based; conditions: 1 μM isoproterenol; LY294002 100 μM 15 min before
Description: Determination of β2AR Sequestration in HEK-293 Cells by ^125I-Cyanopindolol (CYP) Binding—β2AR sequestration was performed as previously described. Briefly, HEK-293 cells were plated at a density of 2.5×10^6 cells/dish and transfected the following day with plasmids containing either the β2AR (150-250 ng), β2AR (250 ng) and HEAT domain (4 μg), PI3Kγ (4.0 μg) or ΔPI3Kγ (4.0 μg) cDNAs. Twelve hours after transfection cells were split into six well Falcon plates at a density of 750,000 cells/well. […] To determine the amount of internalized receptor, 100 μl aliquots of whole cells were added to 150 μl of binding buffer (75 mM Tris-HCl, 10 mM MgCl2, 5 mM EDTA (pH 7.5)). Total binding was determined in the presence of 175 pM ^125I-CYP alone, the number of internalized receptors were determined by using 175 pM ^125I-CYP plus 100 nM CGP12177, and non-specific binding was determined using 175 pM ^125I-CYP plus 1 μM propranolol. Sequestration was calculated as the ratio of (specific receptor binding of ^125I-CYP in the presence of CGP12177)/(specific receptor binding of ^125I-CYP in the absence of CGP12177).

[2] = biological target: T1, PI3K (Homo sapiens, UniProt P48736, DEL30-30/Q459R); experiment: βARK1 associated PI3K activity (lipid kinase assay) in transfected NIH-3T3 cells; assay type: cell-based, Mouse; conditions: 10 μM isoproterenol, 2 min; cells co-transfected with βARK1 and HA-PI3Kγ
T1 construct: expressed in transfected cells; host or cells: NIH-3T3
Description: Cell Culture—Mouse NIH-3T3 and HEK293 cells were maintained in either Iscoves modified Dulbecco's medium or minimal essential medium (MEM) supplemented with 10% fetal bovine serum and 1:100 penicillin-streptomycin (10,000 U/ml) at 37° C. Cells were seeded at a density of ˜1-3×10^5 cells/35 mm^2 dish and at 70-80% confluence were transiently transfected using the transfection reagent FUGENE6 (ROCHE) or calcium phosphate precipitation. Cells were harvested 24 hours after transfection, re-plated in triplicate, allowed to grow overnight and serum starved for 2-4 hours before agonist stimulation.
Cytosolic and Membrane Fractionation—Cell monolayers were scraped in 1 ml of buffer containing 25 mM Tris-HCl (pH 7.5), 5 mM EDTA, 5 mM EGTA, 1 mM phenylmethylsulfonyl fluoride, 2 μg/ml each of leupeptin and aprotinin and disrupted further by using Dounce homogenizer. Intact cells and nuclei were removed by-centrifugation at 1,000×g for 5 min. The collected supernatant was further subject to a centrifugation at 38,000×g for 25 min. The pellet was resuspended in lysis buffer (1% Nonidet P-40, 10% glycerol, 137 mM NaCl, 20 mM Tris-Cl (ph 7.4), 1 mM phenylmethylsulfonyl fluoride, 20 mM NaF, 1 mM sodium pyrophosphate, 1 mM sodium orthovanadate and 2 μg/ml each of aprotinin and leupeptin) and used as membrane fraction and the supernatant was diluted in lysis buffer and used as the cytosolic fraction.
Lipid Kinase Assays—Cells were lysed in lysis buffer and 2 mg cytosolic extract was used for immunoprecipitation with either the C5/1 monoclonal antibody directed against βARK1, the anti-FLAG M2 monoclonal antibody (Sigma) or antibodies to p110γ, or p110β (Santa Cruz Biotechnology) and protein G-agarose. Sedimented beads were then washed once with 1 ml of lysis buffer, thrice with 1 ml of phosphate-buffered saline (1× phosphate-buffered saline, 1% NP-40 and 100 μM sodium orthovanadate), thrice with 1 ml of Tris/LiCl (100 mM Tris-HCl (pH 7.4), 5 mM LiCl and 100 μM sodium orthovanadate) and twice with TNE (10 mM Tris Cl (pH 7.4), 150 mM NaCl, 5 mM EDTA and 100 μM sodium orthovanadate). Samples were then resuspended in 50 ml of TNE and 10 μl of 100 mM MgCl2 was added to each sample. The substrate, phosphatidylinositol (PI, Avanti), was prepared by drying 50 μl of the 10 mg/ml stock (PI in chloroform) in an eppendorf tube with a stream of air and adding 250 μl of TE (10 mM Tris Cl (pH 7.4) and 1 mM EDTA). The PI was then suspended by sonication in an ice bath for 3 minutes. 10 p, of the PI solution and 11 μl of ATP solution (440 μM cold ATP and 1 μCi/μl of [γ-32P]ATP) were added to each sample. […] Autoradiography of dried plates was used to detect signals, and PIP was quantified by phosphorimaging. […] Values are expressed as fold increase/decrease relative to wild-type/control.

[3] = system: β2AR complex; experiment: Recruitment of AP-2 adaptin and clathrin to the agonist-stimulated β2AR complex (immunoprecipitation, immunoblot); assay type: cell-based; conditions: saponin-permeabilized cells, isoproterenol 5 min; compared to similar concentration of Ptdlns (4,5) P2
Description: Immunoblotting and Detection—Immunoblotting and detection of PI3K, βARK1, HA-PI3Kγ, HA-ΔPI3Kγ, Myc-PI3Kα, FLAG-HEAT, PI3KΔHEAT-HA, FLAG-β2AR, HA-β2AR, β-adaptin and clathrin was carried out as previously described. Immunoprecipitating antibodies were added to 500 μg of cell lysate in lysis buffer followed by the addition of 35 μl of 1:1 Protein A- or G-agarose. Samples were rocked overnight at 4° C. then centrifuged at 12,000×g for 5 min. Immunoprecipitates were washed twice with lysis buffer, twice with 1×PBS and resuspended in 1×SDS-gel loading buffer. Proteins were resolved by SDS-polyacrylamide gel electrophoresis and blotted on to PVDF membrane (Bio-Rad). Blots were incubated with antibodies recognizing PI3K, Myc (Santa-Cruz), β-adaptin, clathrin heavy chain (BD Transduction Laboratories), HA (Roche Molecular Biochemicals) and FLAG (Sigma) at 1:2000 dilution and the βARK1 monoclonal antibody at 1:10,000 dilution. Blots were subsequently incubated with appropriate secondary antibody (1:2000 dilution) conjugated to horseradish peroxidase (Amersham Pharmacia Biotech) and detection was carried out using enhanced chemiluminescence. […]
The present inventors determined that βARK1-mediated localization of PI3K within the activated receptor complex is responsible for the generation of D-3 phosphatidylinositols necessary for the efficient recruitment of adaptin to the P2AR complex. […]

T1 sequence (P48736 with tags, fused parts or gaps DEL30-30/Q459R): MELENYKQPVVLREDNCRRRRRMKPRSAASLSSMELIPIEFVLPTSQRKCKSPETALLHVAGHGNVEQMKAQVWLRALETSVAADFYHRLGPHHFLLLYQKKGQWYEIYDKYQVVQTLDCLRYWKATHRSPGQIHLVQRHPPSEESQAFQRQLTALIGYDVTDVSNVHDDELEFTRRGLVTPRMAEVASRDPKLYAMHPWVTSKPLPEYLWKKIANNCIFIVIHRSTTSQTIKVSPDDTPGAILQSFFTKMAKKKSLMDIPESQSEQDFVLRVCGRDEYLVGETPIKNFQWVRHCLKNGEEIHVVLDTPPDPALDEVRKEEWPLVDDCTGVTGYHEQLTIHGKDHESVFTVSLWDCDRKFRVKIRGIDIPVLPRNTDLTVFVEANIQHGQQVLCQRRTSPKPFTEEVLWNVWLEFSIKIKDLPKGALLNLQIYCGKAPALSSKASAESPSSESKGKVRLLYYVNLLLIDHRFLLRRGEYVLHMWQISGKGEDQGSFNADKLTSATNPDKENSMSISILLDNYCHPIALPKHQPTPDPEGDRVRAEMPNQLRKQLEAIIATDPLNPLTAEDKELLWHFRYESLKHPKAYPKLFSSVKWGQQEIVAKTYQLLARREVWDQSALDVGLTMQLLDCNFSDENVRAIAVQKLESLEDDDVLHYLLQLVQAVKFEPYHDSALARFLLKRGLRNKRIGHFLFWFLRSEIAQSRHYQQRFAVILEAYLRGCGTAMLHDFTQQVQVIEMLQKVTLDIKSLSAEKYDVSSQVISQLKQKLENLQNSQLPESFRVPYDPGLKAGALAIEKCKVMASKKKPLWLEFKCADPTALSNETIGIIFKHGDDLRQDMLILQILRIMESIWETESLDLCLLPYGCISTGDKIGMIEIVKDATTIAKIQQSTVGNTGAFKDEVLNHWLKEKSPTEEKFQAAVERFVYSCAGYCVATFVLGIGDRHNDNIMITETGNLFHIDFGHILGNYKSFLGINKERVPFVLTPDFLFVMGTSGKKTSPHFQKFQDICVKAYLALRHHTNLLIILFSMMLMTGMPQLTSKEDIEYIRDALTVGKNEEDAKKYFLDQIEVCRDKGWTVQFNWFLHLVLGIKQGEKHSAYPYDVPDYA

## O=c1cc(N2CCOCC2)oc2c(-c3ccccc3)cccc12 [LY294002, reference compound]
[1]
  reduction in sequestration: 50%

## CC(C)NCC(O)c1ccc(O)c(O)c1 (stereo not shown) [isoproterenol, reference compound]
[2]
  βARK1 associated PI3K activity in the cytosolic fraction after agonist: little change
  βARK1 associated PI3K activity in the membrane fraction after agonist: significant increase

## phosphatidylinositol 3,4,5-triphosphate [Ptdlns (3,4,5) P3, reference compound]
[3]
  efficiency of recruitment of adaptin to the receptor: significantly enhanced
